{
  "source": "patent US20260209823A1",
  "about": "“KINASE/PHOSPHATASE SUBSTRATE ANALYSIS AND COMPOSITIONS USING SPECTRALLY ENCODED MICROBEADS” (CZ Biohub SF, LLC, priority 2022, published 2026)",
  "tested_on": "Protein phosphatase 1 (PP1)",
  "test": "Bead-based multiplexed phosphatase activity assay (pIMAGO detection on spectrally encoded beads)",
  "type": "biochemical",
  "conditions": "beads incubated with PP1 versus buffer only",
  "procedure": "FIG. 2A-B: Overview and example data from bead-based multiplexed phosphatase activity assay. A) Experimental setup of phosphatase assay. Beads with indicated peptides are incubated with either PP1 (top) or Buffer only (bottom). The beads are washed and the phopsphorylation status of the peptides on the beads is detected using pImago. The beads are analyzed using a microscope capable of exciting beads with UV light and then identifying the spectral code embedded within each bead. B) Preliminary data showing the effect of PP1 phosphatase treatment on the phosphorylation status of the TSFFXGISPIEEEAH peptide (X indicates phosphorylated Serine).\nAn assay to measure dephosphorylation is performed by incubating the (phospho) substrate peptides, e.g., synthesized directly on the encoded beads, with a phosphatase of interest. […] These images can then be analyzed using open-source image analysis software, e.g., Harink et al., PLOS ONE 2019, to identify the code (and thus the peptide sequence) and amount of phosphorylation associated with each bead. The ratio of phosphorylation detected between a control reaction in the absence of the phosphatase and in the presence of the phosphatase allows determination of how efficiently different peptide sequences are dephosphorylated. […]",
  "note": "Non-standard residues stand in square brackets, D forms with d. No end group written: not given here. pS = N[C@@H](COP(=O)(O)O)C(=O)O",
  "data": [
    {"sequence": "TSFFXGISPIEEEAH (TSFF[pS]GISPIEEEAH)", "values": [
      {"measurement": "pIMAGO signal (phosphorylation status of bead-bound peptide) after PP1 treatment", "result": "loss of the signal"}
    ]}
  ]
}
